In data set [1] the test system is HIV-1. As to the kind of experiment: Follow-up HIV PCR and CD4 count after transdermal DMF study. The class given is in vivo, human. The source says:
Individuals, the study of whom generated the teachings of ZA 1998/064649, despite being infected with HIV have maintained a CD4^+ T-cell count above 350 for more than 20 years without being on antiretroviral treatment. These individuals are referred to herein as Long-term Non-Progressors (“LTNP”).
One such individual, had initially presented with HIV PCR detecting 63.298 HIV-1 RNA copies/ml of plasma in December 1996.

A short description of data set [2]: Transdermal absorption of liquid DMF. It counts as in vivo, human. The following applies: two patches of diameter 9 cm, total skin surface area 127 cm^2. As for the experimental part: For transdermal administration of a polar compound, the rate of absorption is determined by the skin of the subject.
Accordingly, the desired rate of absorption may be achieved by controlling the surface area of the skin exposed to the drug, as by determining the area of each patch and the number of patches applied to the skin.

The test system of data set [3] is HIV-1. The note with it: transdermal patch containing DMF; cited from earlier work.
Another data set relates to HIV. The following applies: as previously disclosed; cited from earlier work.

Bounds are passed on as bounds.

Regarding `CN(C)C=O` [DMF, N,N-dimethylformamide], the “HIV-1 RNA copies/ml of plasma by HIV PCR” value is under 40 copies/ml in the data set on HIV-1 [1] (one LTNP individual, follow-up March 2006 after transdermal DMF study, initially 63.298 copies/ml in December 1996) and “No” in the data set on HIV-1 [1] (same individual, further follow-up 2011). The “CD4 Count” value in the data set with HIV-1 [1] (same individual, follow-up 2011) was 920 µL⁻¹. Also, the absorption rate result in data set [2] was “about 1.2 g of DMF per hour”. The “outcome of treatment of patients infected with HIV-1” value with HIV-1 [3] is listed as “promising results”. The “inhibition of HIV production” value in the data set on HIV was “powerful inhibitors of HIV production”.
As to `C[S+](C)[O-]` [DMSO, Diemthylsulfoxide], the “inhibition of HIV production” value with HIV is “powerful inhibitors of HIV production”.

Source of the values: patent US20240091310A1, “COMPOSITIONS AND METHODS USEFUL FOR THE PREVENTION AND/OR TREATMENT OF DISEASE IN MAMMALS” (VIRO-GEN (PTY) LTD, priority 2020, published 2024).
